Measurements as given in US11524966B1 (Valo Early Discovery, Inc., priority 2017, dated 2022).
pIC50: −log10 of the molar value.

target: T1, USP28 (His-tagged USP28-FL-mammalian) (Homo sapiens, UniProt Q96RU2); test: Ubiquitin-Rhodamine 110 Assay for USP28 Activity, Example A-1(a); assay type: biochemical; details: Ubiquitin-Rhodamine 110 assay, Example A-1(a); read-out: USP28 A-1(a) IC50 range
T1 construct: Expression of USP28 (1-1077)-TEV-6*His (pTT5 vector); made in house; host or cells: Expi293f cells (pTT5 vector)
T1 sequence (Q96RU2 1-1077): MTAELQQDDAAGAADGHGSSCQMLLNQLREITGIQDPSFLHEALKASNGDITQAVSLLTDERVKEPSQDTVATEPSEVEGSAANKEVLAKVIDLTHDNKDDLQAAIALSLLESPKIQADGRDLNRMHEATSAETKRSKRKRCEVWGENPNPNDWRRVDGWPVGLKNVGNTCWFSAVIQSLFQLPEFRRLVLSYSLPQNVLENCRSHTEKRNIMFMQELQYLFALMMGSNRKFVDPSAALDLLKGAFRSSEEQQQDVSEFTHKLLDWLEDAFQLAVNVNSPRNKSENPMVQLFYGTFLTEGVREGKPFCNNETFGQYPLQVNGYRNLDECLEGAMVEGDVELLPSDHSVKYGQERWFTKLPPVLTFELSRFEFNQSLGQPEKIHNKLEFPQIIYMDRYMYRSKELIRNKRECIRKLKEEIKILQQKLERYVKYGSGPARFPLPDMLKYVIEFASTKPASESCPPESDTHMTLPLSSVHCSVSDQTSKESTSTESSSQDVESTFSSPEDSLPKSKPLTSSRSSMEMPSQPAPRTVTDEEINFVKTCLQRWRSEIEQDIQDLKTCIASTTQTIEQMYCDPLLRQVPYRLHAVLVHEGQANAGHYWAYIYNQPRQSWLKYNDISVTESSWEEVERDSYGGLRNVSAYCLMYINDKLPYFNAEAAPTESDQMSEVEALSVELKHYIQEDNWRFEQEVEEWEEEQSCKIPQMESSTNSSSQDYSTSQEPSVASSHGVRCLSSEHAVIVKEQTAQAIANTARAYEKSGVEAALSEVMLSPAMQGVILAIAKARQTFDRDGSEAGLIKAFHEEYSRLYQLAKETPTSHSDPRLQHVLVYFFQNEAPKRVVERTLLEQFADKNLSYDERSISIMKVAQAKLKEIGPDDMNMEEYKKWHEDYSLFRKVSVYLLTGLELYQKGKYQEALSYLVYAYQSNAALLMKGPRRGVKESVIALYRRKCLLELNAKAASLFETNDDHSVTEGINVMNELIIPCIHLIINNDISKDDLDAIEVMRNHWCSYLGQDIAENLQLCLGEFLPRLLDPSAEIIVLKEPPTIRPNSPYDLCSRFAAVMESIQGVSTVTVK
How it was run: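 Full-length His-tagged human USP28 (1-1077, Expi293f-expressed), […], with 25 nM Ub-Rh110 (<<Km) in pH 8.0 Tris buffer with BME, BGG, Triton X-100. 10-point dilutions (25 μM-1.3 nM), 45 min at room temperature, citric acid stop, fluorescence 485/535 nm; IC50 by 4-parameter fit.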

Row | Compound | pIC50
1 | Cc1ccc2c(N)c(C(=O)N[C@H]3COc4cc(N5C[C@@H](N)[C@H](OC(F)(F)F)C5)ccc4C3)sc2n1 (single isomer, unassigned) [Example 3-9] | 6.70 to 7.30
2 | Cc1ccc2c(N)c(C(=O)N[C@H]3COc4cc(N5C[C@H](OC(F)(F)F)[C@@H](N)C5)ccc4C3)sc2n1 (single isomer, unassigned) [Example 3-10] | 6.70 to 7.30
3 | Cc1ccc2c(N)c(C(=O)N[C@H]3COc4c(cc(F)c(N5CCNCC5)c4F)C3)sc2n1 (single isomer, unassigned) [Example 3-17] | 7.30 to 9.00
4 | Cc1ccc2c(N)c(C(=O)N[C@@H]3COc4c(cc(F)c(N5CCNCC5)c4F)C3)sc2n1 (single isomer, unassigned) [Example 3-18] | 5.70 to 6.70
5 | Cc1ccc2c(N)c(C(=O)N[C@H]3COc4cc(N5C[C@H](N)CC56COC6)ccc4C3)sc2n1 (single isomer, unassigned) [Example 351] | 7.30 to 9.00
6 | Cc1ccc2c(N)c(C(=O)N[C@H]3COc4cc(N5C[C@@H](N)CC56COC6)ccc4C3)sc2n1 (single isomer, unassigned) [Example 352] | 7.30 to 9.00
7 | O=C(N[C@H]1CCc2c(c(F)cc(N3CC4CCC(C3)N4)c2C(F)F)C1)c1cnc2c(c1)[C@@H]1C[C@@H]1CN2 (single isomer, unassigned) [Example 359] | < 5.70
8 | O=C(N[C@H]1CCc2c(c(F)cc(N3CC4CCC(C3)N4)c2C(F)F)C1)c1cnc2c(c1)[C@H]1C[C@H]1CN2 (single isomer, unassigned) [Example 360] | 7.30 to 9.00
9 | O=C(N[C@@H]1CCc2c(c(F)cc(N3CC4CCC(C3)N4)c2C(F)F)C1)c1cnc2c(c1)[C@@H]1C[C@@H]1CN2 (single isomer, unassigned) [Example 361] | < 5.70
10 | O=C(N[C@@H]1CCc2c(c(F)cc(N3CC4CCC(C3)N4)c2C(F)F)C1)c1cnc2c(c1)[C@H]1C[C@H]1CN2 (single isomer, unassigned) [Example 362] | 5.70 to 6.70
11 | Cc1ccc2c(N)c(C(=O)N[C@H]3COc4cc(N5C[C@H](N)[C@@H](F)C5)ccc4C3)sc2n1 [Example 3-7, 3-amino-N-((R)-7-((3S,4S)-3-amino-4-fluoropyrrolidin-1-yl)chroman-3-yl)-6-methylthieno[2,3-b]pyridine-2-carboxamide] | 7.30 to 9.00
12 | Cc1ccc2c(N)c(C(=O)N[C@H]3COc4cc(N5C[C@@H](N)[C@H](F)C5)ccc4C3)sc2n1 [Example 3-8, 3-amino-N-((R)-7-((3R,4R)-3-amino-4-fluoropyrrolidin-1-yl)chroman-3-yl)-6-methylthieno[2,3-b]pyridine-2-carboxamide] | 7.30 to 9.00
13 | Cc1ccc2c(N)c(C(=O)N[C@H]3COc4cc(N5CCN[C@@H](C(F)(F)F)C5)ccc4C3)sc2n1 [Example 3-11, 3-amino-6-methyl-N-((R)-7-((R)-3-(trifluoromethyl)piperazin-1-yl)chroman-3-yl)thieno[2,3-b]pyridine-2-carboxamide] | 6.70 to 7.30
14 | Cc1ccc2c(N)c(C(=O)N[C@H]3COc4cc(N5CCN[C@H](C(F)(F)F)C5)ccc4C3)sc2n1 [Example 3-12, 3-amino-6-methyl-N-((R)-7-((S)-3-(trifluoromethyl)piperazin-1-yl)chroman-3-yl)thieno[2,3-b]pyridine-2-carboxamide] | 6.70 to 7.30
15 | Cc1ccc2c(N)c(C(=O)N[C@H]3COc4cc(N5CC[C@]6(CCCNC6)C5)ccc4C3)sc2n1 [Example 3-13, N-((R)-7-((S)-2,7-diazaspiro[4.5]decan-2-yl)chroman-3-yl)-3-amino-6-methylthieno[2,3-b]pyridine-2-carboxamide] | 7.30 to 9.00
16 | Cc1ccc2c(N)c(C(=O)N[C@H]3COc4cc(N5CC[C@@]6(CCCNC6)C5)ccc4C3)sc2n1 [Example 3-14, N-((R)-7-((R)-2,7-diazaspiro[4.5]decan-2-yl)chroman-3-yl)-3-amino-6-methylthieno[2,3-b]pyridine-2-carboxamide] | 7.30 to 9.00
17 | O=C(N[C@H]1COc2cc(N3CC4CCC(C3)N4)ccc2C1)c1cnc2c(c1)[C@@H]1C[C@@H]1CN2 [Example 3-15, (1aS,7bR)-N-((3R)-7-(3,8-diazabicyclo[3.2.l]octan-3-yl)chroman-3-yl)-1a,2,3,7b-tetrahydro-1H-cyclopropa[c][1,8]naphthyridine-6-carboxamide] | 7.30 to 9.00
18 | O=C(N[C@H]1COc2cc(N3CC4CCC(C3)N4)ccc2C1)c1cnc2c(c1)[C@H]1C[C@H]1CN2 [Example 3-16, (1aR,7bS)-N-((3R)-7-(3,8-diazabicyclo[3.2.1]octan-3-yl)chroman-3-yl)-1a,2,3,7b-tetrahydro-1H-cyclopropa[c][1,8]naphthyridine-6-carboxamide] | 5.70 to 6.70
19 | Cc1ccc2c(N)c(C(=O)N[C@H]3COc4cc(N5CCC(F)(F)CC5)ccc4C3)sc2n1 [Example 5-1, (R)-3-amino-N-(7-(4,4-difluoropiperidin-1-yl)chroman-3-yl)-6-methylthieno[2,3-b]pyridine-2-carboxamide] | 7.30 to 9.00
20 | Cc1ccc2c(N)c(C(=O)N[C@H]3COc4cc(N5CCS(=O)(=O)CC5)ccc4C3)sc2n1 [Example 5-2, (R)-3-amino-N-(7-(1,1-dioxidothiomorpholino)chroman-3-yl)-6-methylthieno[2,3-b]pyridine-2-carboxamide] | 7.30 to 9.00
21 | Cc1ccc2c(N)c(C(=O)N[C@H]3COc4cc(N5CC(O)(C(F)(F)F)C5)ccc4C3)sc2n1 [Example 5-3, (R)-3-amino-N-(7-(3-hydroxy-3-(trifluoromethyl)azetidin-1-yl)chroman-3-yl)-6-methylthieno[2,3-b]pyridine-2-carboxamide] | 7.30 to 9.00
22 | Cc1ccc2c(N)c(C(=O)N[C@H]3COc4cc(N5CC6COCC(C5)C6(F)F)ccc4C3)sc2n1 [Example 5-4, 3-amino-N-((3R)-7-(9,9-difluoro-3-oxa-7-azabicyclo[3.3.1]nonan-7-yl)chroman-3-yl)-6-methylthieno[2,3-b]pyridine-2-carboxamide] | 7.30 to 9.00
23 | Cc1ccc2c(N)c(C(=O)N[C@H]3COc4cc(N5CCC(C(=O)O)CC5)ccc4C3)sc2n1 [Example 6-1, (R)-1-(3-(3-Amino-6-methylthieno[2,3-b]pyridine-2-carboxamido)chroman-7-yl)piperidine-4-carboxylic Acid] | 5.70 to 6.70
24 | Cc1ccc2c(N)c(C(=O)N[C@H]3COc4cc(N5CC[C@@H](C(=O)O)C5)ccc4C3)sc2n1 [Example 6-2, (R)-1-((R)-3-(3-amino-6-methylthieno[2,3-b]pyridine-2-carboxamido)chroman-7-yl)pyrrolidine-3-carboxylic acid] | 6.70 to 7.30
25 | Cc1ccc2c(N)c(C(=O)N[C@H]3COc4cc(N5CC[C@H](C(=O)O)C5)ccc4C3)sc2n1 [Example 6-3, (S)-1-((R)-3-(3-amino-6-methylthieno[2,3-b]pyridine-2-carboxamido)chroman-7-yl)pyrrolidine-3-carboxylic acid] | 6.70 to 7.30
26 | Cc1cnc2c(N)c(C(=O)N[C@H]3CCc4cc(N5CC(C(=O)O)C5)ccc4C3)sc2n1 [Example 6-4, (S)-1-(6-(7-amino-3-methylthieno[2,3-b]pyrazine-6-carboxamido)-5,6,7,8-tetrahydronaphthalen-2-yl)azetidine-3-carboxylic acid] | 5.70 to 6.70
27 | Cc1ccc2c(N)c(C(=O)N[C@H]3COc4cc(N5CCC(O)CC5)ccc4C3)sc2n1 [Example 7-1, (R)-3-amino-N-(7-(4-hydroxypiperidin-1-yl)chroman-3-yl)-6-methylthieno[2,3-b]pyridine-2-carboxamide] | 7.30 to 9.00
